Each molecule was assayed against T1, LKB1 (Homo sapiens, UniProt Q15831+Q7RTN6) (assay: in vitro LKB1 functional activity). Details: APA analogs.
T1 sequence (Q15831 1-433): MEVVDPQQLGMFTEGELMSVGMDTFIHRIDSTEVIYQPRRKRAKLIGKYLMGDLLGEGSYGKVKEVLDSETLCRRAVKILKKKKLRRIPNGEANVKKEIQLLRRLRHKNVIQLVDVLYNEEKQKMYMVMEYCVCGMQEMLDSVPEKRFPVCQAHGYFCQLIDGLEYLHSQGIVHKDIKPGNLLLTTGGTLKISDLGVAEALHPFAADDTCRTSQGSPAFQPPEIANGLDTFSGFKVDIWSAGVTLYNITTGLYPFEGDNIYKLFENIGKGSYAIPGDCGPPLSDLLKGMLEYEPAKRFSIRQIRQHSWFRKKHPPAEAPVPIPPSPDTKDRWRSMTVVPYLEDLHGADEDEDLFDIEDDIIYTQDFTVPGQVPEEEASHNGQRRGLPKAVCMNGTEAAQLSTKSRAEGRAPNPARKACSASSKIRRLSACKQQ
T1 sequence (Q7RTN6 1-431): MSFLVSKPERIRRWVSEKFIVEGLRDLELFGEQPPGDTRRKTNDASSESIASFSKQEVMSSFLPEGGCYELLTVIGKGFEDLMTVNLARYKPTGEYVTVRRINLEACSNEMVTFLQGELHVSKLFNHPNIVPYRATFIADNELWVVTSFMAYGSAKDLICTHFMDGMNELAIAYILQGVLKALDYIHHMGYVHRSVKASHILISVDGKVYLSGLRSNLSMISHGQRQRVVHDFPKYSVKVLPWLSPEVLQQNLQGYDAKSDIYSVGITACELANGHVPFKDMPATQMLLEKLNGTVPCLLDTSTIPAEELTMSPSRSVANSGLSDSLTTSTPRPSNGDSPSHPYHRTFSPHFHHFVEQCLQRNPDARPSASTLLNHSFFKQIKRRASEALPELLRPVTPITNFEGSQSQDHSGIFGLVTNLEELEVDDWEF
T1 sequence (Q9Y376 1-341 partner): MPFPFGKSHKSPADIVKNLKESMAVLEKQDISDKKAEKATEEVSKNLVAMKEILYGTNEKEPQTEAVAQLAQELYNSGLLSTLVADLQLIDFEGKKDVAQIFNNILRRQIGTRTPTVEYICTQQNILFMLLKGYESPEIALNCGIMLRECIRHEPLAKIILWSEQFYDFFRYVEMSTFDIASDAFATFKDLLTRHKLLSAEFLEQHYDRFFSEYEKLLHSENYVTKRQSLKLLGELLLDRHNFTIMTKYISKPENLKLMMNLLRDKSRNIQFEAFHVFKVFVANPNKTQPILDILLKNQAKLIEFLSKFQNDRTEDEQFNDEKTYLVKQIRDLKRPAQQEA
Assay type: biochemical

LKB1 % Act. Increase | SMILES
C (C=199-1000%) | CC(=O)NS(=O)(=O)c1ccc(NC(=O)c2nc(-c3csc4ccccc34)cnc2N)cc1 [SU20668-0376, N-(4-(N-acetylsulfamoyl)phenyl)-3-amino-6-(benzo[b]thiophen-3-yl)pyrazine-2-carboxamide]
D (D=<1000%) | Cc1ccc(-c2cnc(N)c(C(=O)Nc3ccc(S(=O)(=O)NS(C)(=O)=O)cc3)n2)cc1 [SU20668-0470, 3-amino-N-(4-(N-(methylsulfonyl)sulfamoyl)phenyl)-6-p-tolylpyrazine-2-carboxamide]
D (D=<1000%) | CC(=O)NS(=O)(=O)c1ccc(NC(=O)c2nc(-c3ccc(C(N)=O)cc3)cnc2N)cc1 [SU20668-0342, N-(4-(N-acetylsulfamoyl)phenyl)-3-amino-6-(4-carbamoylphenyl)pyrazine-2-carboxamide]
D (D=<1000%) | Cc1ccc(-c2cnc(N)c(C(=O)Nc3ccc(C(N)=O)cc3)n2)cc1 [SU20668-0280, 3-amino-N-(4-carbamoylphenyl)-6-p-tolylpyrazine-2-carboxamide]
D (D=<1000%) | CC(=O)NS(=O)(=O)c1ccc(NC(=O)c2nc(-c3ccc(C)c(F)c3)cnc2N)cc1 [SU20668-0390, N-(4-(N-acetylsulfamoyl)phenyl)-3-amino-6-(3-fluoro-4-methylphenyl)pyrazine-2-carboxamide]
D (D=<1000%) | CC(=O)NS(=O)(=O)c1ccc(NC(=O)c2nc(-c3ccc(Cl)cc3)cnc2N)cc1 [SU20668-0391, N-(4-(N-acetylsulfamoyl)phenyl)-3-amino-6-(4-chlorophenyl)pyrazine-2-carboxamide]
D (D=<1000%) | CC(=O)NS(=O)(=O)c1ccc(NC(=O)c2nc(-c3cccc(C(N)=O)c3)cnc2N)cc1 [SU20668-0341, N-(4-(N-acetylsulfamoyl)phenyl)-3-amino-6-(3-carbamoylphenyl)pyrazine-2-carboxamide]
C (C=199-1000%) | CCOC(=O)CS(=O)(=O)c1ccc(NC(=O)c2nc(-c3ccc(C)cc3)cnc2N)cc1 [SU20668-0311, ethyl 2-(4-(3-amino-6-p-tolylpyrazine-2-carboxamido)phenylsulfonyl)acetate]
C (C=199-1000%) | CC(=O)NS(=O)(=O)c1ccc(NC(=O)c2nc(-c3ccc4cc[nH]c4c3)cnc2N)cc1 [SU20668-0345, N-(4-(N-acetylsulfamoyl)phenyl)-3-amino-6-(1H-indol-6-yl)pyrazine-2-carboxamide]
D (D=<1000%) | COc1cc(F)c(-c2cnc(N)c(C(=O)Nc3ccc(S(=O)(=O)NC(C)=O)cc3)n2)c(F)c1 [SU20668-0375, N-(4-(N-acetylsulfamoyl)phenyl)-3-amino-6-(2,6-difluoro-4-methoxyphenyl)pyrazine-2-carboxamide]
D (D=<1000%) | CC(=O)NS(=O)(=O)c1ccc(NC(=O)c2nc(-c3cccc(N4CCOCC4)c3)cnc2N)cc1 [SU20668-0377, N-(4-(N-acetylsulfamoyl)phenyl)-3-amino-6-(3-morpholinophenyl)pyrazine-2-carboxamide]
C (C=199-1000%) | CC(=O)NS(=O)(=O)c1ccc(NC(=O)c2nc(-c3ccc(CN(C)C)cc3)cnc2N)cc1 [SU20668-0339, N-(4-(N-acetylsulfamoyl)phenyl)-3-amino-6-(4-((dimethylamino)methyl)phenyl)pyrazine-2-carboxamide]
C (C=199-1000%) | CC(=O)NS(=O)(=O)c1ccc(NC(=O)c2nc(-c3ccc(S(N)(=O)=O)cc3)cnc2N)cc1 [SU20668-0351, N-(4-(N-acetylsulfamoyl)phenyl)-3-amino-6-(4-sulfamoylphenyl)pyrazine-2-carboxamide]
C (C=199-1000%) | CS(=O)(=O)c1ccc(-c2cnc(N)c(C(=O)Nc3ccc(S(N)(=O)=O)cc3)n2)cc1 [SU20668-0309, 3-amino-6-(4-(methylsulfonyl)phenyl)-N-(4-sulfamoylphenyl)pyrazine-2-carboxamide]
C (C=199-1000%) | CC(=O)NS(=O)(=O)c1ccc(NC(=O)c2nc(-c3ccc(N)cc3)cnc2N)cc1 [SU20668-0344, N-(4-(N-acetylsulfamoyl)phenyl)-3-amino-6-(4-aminophenyl)pyrazine-2-carboxamide]

The next lines start with the molecule.

SMILES | LKB1 % Act. Increase
Cc1ccc(-c2cnc(N)c(C(=O)Nc3ccc(S(C)(=O)=O)cc3)n2)cc1 [SU20668-0293, 3-amino-N-(4-(methylsulfonyl)phenyl)-6-p-tolylpyrazine-2-carboxamide] | C (C=199-1000%)
Cc1ccc(-c2cnc(N)c(C(=O)Nc3ccc(S(=O)(=O)Nc4cc(C)on4)cc3)n2)cc1 [SU20668-0467, 3-amino-N-(4-(N-(5-methylisoxazol-3-yl)sulfamoyl)phenyl)-6-p-tolylpyrazine-2-carboxamide] | C (C=199-1000%)
Cc1ccc(-c2cnc(N)c(C(=O)Nc3ccc(S(N)(=O)=O)nc3)n2)cc1 [SU20668-0304, 3-amino-N-(6-sulfamoylpyridin-3-yl)-6-p-tolylpyrazine-2-carboxamide] | D (D=<1000%)
CCO[P@](C)(=O)CS(=O)(=O)c1ccc(NC(=O)c2nc(-c3ccc(C)cc3)cnc2N)cc1 [SU20668-0518, (S)-ethyl (4-(3-amino-6-p-tolylpyrazine-2-carboxamido)phenylsulfonyl)methyl(methyl)phosphinate] | B (B=399-2000%)
Cc1ccc(-c2cnc(N)c(C(=O)Nc3ccc(CC(=O)O)cc3)n2)cc1 [SU20668-0330, 2-(4-(3-amino-6-p-tolylpyrazine-2-carboxamido)phenyl)acetic acid] | C (C=199-1000%)
CCOP(C)(=O)COc1ccc(NC(=O)c2nc(-c3ccc(C)cc3)cnc2N)cc1 (stereo not shown) [SU20668-0476] | D (D=<1000%)
COP(=O)(CS(=O)(=O)c1ccc(NC(=O)c2nc(-c3ccc(C)s3)cnc2N)cc1)OC [SU20668-0448, dimethyl (4-(3-amino-6-(5-methylthiophen-2-yl)pyrazine-2-carboxamido)phenylsulfonyl)methylphosphonate] | C (C=199-1000%)
CCOP(=O)(CS(=O)(=O)c1ccc(NC(=O)c2nc(-c3cc(F)ccc3C#N)cnc2N)cc1)OCC [SU20668-0471, diethyl (4-(3-amino-6-(2-cyano-5-fluorophenyl)pyrazine-2-carboxamido)phenylsulfonyl)methylphosphonate] | D (D=<1000%)
Cc1ccc(-c2cnc(N)c(C(=O)Nc3ccc(S(=O)(=O)NC(=O)CCOCc4ccccc4)cc3)n2)cc1 [SU20668-0368, 3-amino-N-(4-(N-(3-(benzyloxy)propanoyl)sulfamoyl)phenyl)-6-p-tolylpyrazine-2-carboxamide] | D (D=<1000%)
Cc1ccc(-c2cnc(N)c(C(=O)Nc3ccc([S@SP3](=O)(=O)CP(=O)(O)O)cc3)n2)cc1 [SU20668-0312, (((4-(3-amino-6-(p-tolyl)pyrazine-2-carboxamido)phenyl)sulfonyl)methyl)phosphonic acid] | C (C=199-1000%)
Cc1ccc(-c2cnc(N)c(C(=O)Nc3cnc(S(C)(=O)=O)nc3)n2)cc1 [SU20668-0303, 3-amino-N-(2-(methylsulfonyl)pyrimidin-5-yl)-6-p-tolylpyrazine-2-carboxamide] | D (D=<1000%)
CCOP(=O)(CS(=O)(=O)c1ccc(NC(=O)c2nc(-c3ccc(C(F)(F)F)cc3)cnc2N)cc1)OCC [SU20668-0488, diethyl (4-(3-amino-6-(4-(trifluoromethyl)phenyl)pyrazine-2-carboxamido)phenylsulfonyl)methylphosphonate] | D (D=<1000%)
CCP(=O)(CS(=O)(=O)c1ccc(NC(=O)c2nc(-c3ccc(C)cc3)cnc2N)cc1)OC (stereo not shown) [SU20668-0514, methyl (4-(3-amino-6-p-tolylpyrazine-2-carboxamido)phenylsulfonyl)methyl(ethyl)phosphinate] | B (B=399-2000%)
CCOP(=O)(NS(=O)(=O)c1ccc(NC(=O)c2nc(-c3ccc(C)cc3)cnc2N)cc1)OCC [SU20668-0475, diethyl 4-(3-amino-6-p-tolylpyrazine-2-carboxamido)phenylsulfonylphosphoramidate] | B (B=399-2000%)
Cc1ccc(-c2cnc(N)c(C(=O)Nc3ccc(P(=O)(O)O)cc3)n2)cc1 [SU20668-0196, 4-(3-amino-6-p-tolylpyrazine-2-carboxamido)phenylphosphonic acid] | C (C=199-1000%)
Cc1ccc(-c2cnc(N)c(C(=O)Nc3ccc(NS(C)(=O)=O)cc3)n2)cc1 [SU20668-0281] | D (D=<1000%)

Source: patent publication US12195490B2, “STRAD-binding agents and uses thereof” (The Regents of the University of California, priority 2020, dated 2025)
